Where two headings read alike, the source gives them in different places. Marks after values point to notes of the source that are not given here.
Experiments:
CYP3A5 = molecular target: T1, CYP3A5 (Homo sapiens, UniProt P20815); assay: Metabolic stability (substrate depletion) with CYP3A5; format: in vitro ADME; details: for elimination rate constant k by CYP3A5 / half-life at 1 μM: 1 μM substrate, CYP3A5 10 pmol/mL; for CLint (CYP3A5): PBPK parameter, in vitro data obtained; for half-life at 1 μM: human, CYP3A5 enzyme, pH 7.4, read-out: T1/2 by CYP3A5; for Intrinsic clearance, CLint CYP3A5: substrate depletion
T1 construct: purchased BD Gentest (Woburn, Mass.)
Description: The metabolic stability experiments were performed to derive intrinsic clearance (CLint) values via the substrate depletion method. […] NADPH A was subsequently added to initiate the reaction. […] The reaction mixtures were incubated at 37° C. with gentle agitation. At the respective time points (0-60 min), 80 μL of the reaction mixture was quenched using an equal volume of ice-cold ACN with 1 μM tamoxifen as internal standard (IS). The samples were then centrifuged at 3220 g at 4° C. for 30 min before transferring the supernatant to a 96-well plate for liquid chromatography-tandem mass spectrometry (LC-MS/MS) analysis.
The mean of triplicate peak area ratios for each compound was normalized to that of the same compound at the 0 min time point to obtain the percentage of substrate remaining at each time point. This was plotted against incubation time for each compound and the data was then fitted to a one-phase decay model using GraphPad Prism software (version 8.02; GraphPad Inc., San Diego, Calif.) to obtain an estimation for the elimination rate constant (k). CLint was then calculated based on equation 3:
In equation 3, k=elimination rate constant (min^−1); V=volume of incubation mixture (mL); P=amount of protein in mixture (mg).

[1] = Parallel artificial membrane permeability assay (PAMPA); format: in vitro ADME; details: read-out: Effective permeability
Description: (§1) The aqueous solubility of each compound was measured in universal buffer (pH 7.4) using MultiscreenHTS PCF Filter Plates. The effective permeability of each compound was measured using the parallel artificial membrane permeability assay (PAMPA).

CYP2J2 = molecular target: T2, CYP2J2 (Homo sapiens, UniProt P51589); assay: Inhibition of CYP2J2-mediated astemizole metabolism in hiPSC-CM; format: cell-based; design: endogenous in cells; host or cells: hiPSC-CM (from human foreskin fibroblasts); details: 2 μM drug co-incubated with 1 μM astemizole
T2 sequence (P51589 1-502): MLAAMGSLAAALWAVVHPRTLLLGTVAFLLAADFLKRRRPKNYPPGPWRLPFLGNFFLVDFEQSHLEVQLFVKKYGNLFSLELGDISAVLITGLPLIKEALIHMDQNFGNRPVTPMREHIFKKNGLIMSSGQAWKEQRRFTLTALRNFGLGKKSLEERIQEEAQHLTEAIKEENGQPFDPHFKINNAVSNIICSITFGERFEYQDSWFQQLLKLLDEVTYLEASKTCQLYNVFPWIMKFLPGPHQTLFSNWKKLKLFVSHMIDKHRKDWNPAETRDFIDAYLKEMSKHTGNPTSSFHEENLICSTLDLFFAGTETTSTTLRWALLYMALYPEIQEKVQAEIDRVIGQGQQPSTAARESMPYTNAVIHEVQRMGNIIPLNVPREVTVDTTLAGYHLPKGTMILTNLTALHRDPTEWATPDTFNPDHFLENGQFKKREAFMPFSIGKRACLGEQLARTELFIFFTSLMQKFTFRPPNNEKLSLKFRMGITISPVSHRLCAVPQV
Description: HiPSC-CM were seeded at a density 100,000 cell/well in a 12-well plate and differentiated for 30 days. […] The cells were then washed with 1×PBS twice and dislodged using Accutase® cell detachment solution. The cells were then pelleted at 2000 g for 10 min at 4° C. The supernatant was discarded and the pellets were resuspended in 100 μL of ice-cold ACN with 0.1 μM buspirone as an internal standard. The cells were sonicated for 15 min on ice to bring about complete cell lysis. The lysate was centrifuged at 10,000×g for 15 min at 4° C. The supernatant was collected and analyzed using LC/MS/MS.
The LC/MS/MS system consisted of an Agilent 1290 Infinity ultra-high pressure liquid chromatography (UPLC) system (Agilent Technologies Inc., Santa Clara, Calif.) interfaced with the AB SCIEX QTRAP® 5500 tandem mass spectrometry (MS/MS) system (AB SCIEX, Framingham, Mass.). The LC/MS/MS system was controlled by Analyst 1.4.2 software (Applied Biosystems) which performed all chromatographic peak integration. The ACQUITY UPLC BEH C18 column, 1.7 μM, 2.1×50 mm (Waters, Milford, Mass.), was used to achieve chromatographic separation. The temperatures of the column and samples were maintained at 45° C. and 4° C. respectively. The mobile phases were 0.2% acetic acid in 5 mM ammonium acetate (solvent A) and 0.2% acetic acid in ACN (solvent B). They were delivered at a flow rate of 0.6 mL/min. […]

[2] = Aqueous solubility, MultiscreenHTS PCF Filter Plates; format: physicochemical; details: aqueous buffer; universal buffer (pH 7.4)
Description: as §1

H9c2 cells = assay: Reduction of intracellular ATP (Mitochondrial ToxGlo) in differentiated H9c2 cells; format: cell-based; details: Rattus norvegicus; H9c2 cells, 6 h exposure; read-out: decrease in intracellular ATP levels IC50
Description: H9c2 cell line was purchased from American Tissue Type Collection (ATCC) (Manassas, Va.). The cells were cultured in low-glucose DMEM growth media (Cat No: 31600, Thermo Fisher Scientific, Waltham, Mass.) supplemented with 1.5 g/L sodium bicarbonate, 25 mM HEPES, 10% fetal bovine serum (FBS) (GE Healthcare, Singapore), 100 units/mL penicillin, 100 μg/mL streptomycin and 250 ng/mL amphotericin B in 75-cm^2 tissue-culture flasks at 37° C. in a humidified atmosphere of 5% CO2. Cells were fed every 2-3 days and sub-cultured once 70-80% confluency was achieved to prevent the loss of differentiation potential. For differentiation, H9c2 cells were seeded at a density of 100,000 cells/well in 12-well plates. The cells were maintained for 1 day in low-glucose high-serum growth media to allow for cell attachment. Subsequently, cells were differentiated using 1 μM ATRA.
H9c2 cells were seeded in a white chimney plate and differentiated. The media was changed to DMEM with 10 mM galactose, 2 mM glutamine (6 mM final), 5 mM HEPES, 1 mM sodium pyruvate, 100 U/mL penicillin, 100 μg/mL streptomycin, 0.25 μg/mL amphotericin B, 1% FBS, 1× insulin-transferrin-selenium and 1 μM ATRA for 48 h to overcome the Crabtree effect. […] The cytotoxicity and intracellular ATP content were measured concurrently using Mitochondrial ToxGlo™ kit (Promega, Madison, Wis.) using manufacturer's protocol. Mitochondrial ToxGlo™ assay measures the cell viability using fluorogenic peptide bis-alanine-alanine-phenylalanine-R110 (bis-AAF-R110). Bis-AAF-R110 is a selective peptide that measures protease activity in dead cells since it is impermeable to live cells. Here, the fluorescence derived from metabolized bis-AAF-R110 was measured at different concentrations of the test compounds and compared to control. As the concentration of cytotoxic compound increases, the number of dead cells increases, leading to a higher fluorescence signal. ATP is measured by adding the ATP Detection Reagent, resulting in cell lysis and generation of a luminescent signal proportional to the amount of ATP present. […]

[3] = cited from earlier work

T1 sequence (P20815 whole entry): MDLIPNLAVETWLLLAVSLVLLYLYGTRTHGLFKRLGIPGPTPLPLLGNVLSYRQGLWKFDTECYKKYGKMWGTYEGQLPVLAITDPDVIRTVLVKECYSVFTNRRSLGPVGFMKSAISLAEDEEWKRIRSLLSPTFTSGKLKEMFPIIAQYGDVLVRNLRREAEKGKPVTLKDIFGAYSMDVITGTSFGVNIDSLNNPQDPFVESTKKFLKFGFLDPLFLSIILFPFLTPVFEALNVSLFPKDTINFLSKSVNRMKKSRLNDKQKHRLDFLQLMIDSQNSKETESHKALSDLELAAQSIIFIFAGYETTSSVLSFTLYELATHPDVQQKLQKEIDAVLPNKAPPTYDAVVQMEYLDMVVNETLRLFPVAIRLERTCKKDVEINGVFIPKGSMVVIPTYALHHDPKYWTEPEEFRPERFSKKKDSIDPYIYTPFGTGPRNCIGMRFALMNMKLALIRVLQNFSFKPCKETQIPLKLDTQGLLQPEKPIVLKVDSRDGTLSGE

| SMILES | elimination rate constant k by CYP3A5 (CYP3A5) [min⁻¹] | CLint (CYP3A5) (CYP3A5) | half-life at 1 μM (CYP3A5) [min] | Intrinsic clearance, CLint CYP3A5 (CYP3A5) [µL/min/pmol] | Papp [1] [×10⁻⁶ cm/s] | solubility [2] [µg/mL] | IC50 (H9c2 cells) [µM] | Kp of tissues: Adipose ([3]; PBPK parameter) | Kp of tissues: Heart ([3]; PBPK parameter) | Kp of tissues: Kidney ([3]; PBPK parameter) | log P ([3]; PBPK parameter) | other results |
| --- | --- | --- | --- | --- | --- | --- | --- | --- | --- | --- | --- | --- |
| CCCCc1oc2ccc(NS(C)(=O)=O)cc2c1C(=O)c1ccc(OCCCN(CCCC)CCCC)cc1.Cl [Dronedarone] | 0.03989 | 14.1812* μL/min/mg microsomal protein | 17.4 | 3.99 | 3.46 ± 0.5 | 3.22 | 3.1 | 1 | 1 | 1 | 6.46 | Intrinsic clearance, CLint CYP3A5 (CYP3A5; listed as dronedarone): 3.989 µL/min/pmol; inhibition of CYP2J2 in hiPSC-CM (CYP2J2; 24 h): 98%; Caco-2 permeability ([3]; PBPK parameter): 0.595 ×10⁻⁶ cm/s; Kp of tissues: Liver ([3]; PBPK parameter): 38.05; Kp of tissues: Lung ([3]; PBPK parameter): 64.01; fu ([3]; PBPK parameter): 0.003; pKa ([3]; PBPK parameter, monoprotic base): 9.4; Solubility-pH profile ([3]; pH 3): 1.6 mg/mL; Solubility-pH profile ([3]; pH 4): 1.6 mg/mL; Solubility-pH profile ([3]; pH 5): 1.5 mg/mL; Solubility-pH profile ([3]; pH 6): 0.1 mg/mL; Solubility-pH profile ([3]; pH 7): 0.01 mg/mL |
| Cl.[2H]c1c(NS(C)(=O)=O)c([2H])c2c(C(=O)c3ccc(OCCCN(CCCC)CCCC)cc3)c(CCCC)oc2c1[2H] [Poyendarone, Methanesulfonamide, N-(2-butyl-3-(4-(3-(dibutylamino)propoxy)benzoyl)-1-benzo(4,6,7-d3)-furan-5-yl)hydrochloride] | 0.02757 | 14.2384* μL/min/mg microsomal protein | 25.1 | 2.76 | 4.08 ± 0.5 | 2.43 | 41.5 | 1 | 1 | 1 | 6.442 | Intrinsic clearance, CLint CYP3A5 (CYP3A5; listed as poyendarone): 2.757 µL/min/pmol; inhibition at 24 h, 2 μM (CYP2J2; human, hiPSC-derived cardiomyocytes (hiPSC-CM), probe astemizole (1 μM)): 50%; Caco-2 permeability ([3]; PBPK parameter, assumed): 0.595 ×10⁻⁶ cm/s; Kp of tissues: Liver ([3]; PBPK parameter, assumed): 38.05; Kp of tissues: Lung ([3]; PBPK parameter, assumed): 64.01; pKa ([3]; PBPK parameter, assumed): 9.4; Additional HLM clearance ([3]; assumed): 55 μL/min/mg microsomal protein; Intrinsic solubility ([3]; assumed): 2.01 × 10^−3 (assumed) mg/mL |
